{"source": "patent US8431593B2", "about": "“Heteroaryl amide derivatives” (H. Lundbeck A/S, priority 2006, dated 2013)"}
{"target": "T1, P2X7 receptor (Homo sapiens, UniProt Q99572)", "T1 construct": "host or cells: SH-SY5Y", "T1 sequence (Q99572 1-595)": "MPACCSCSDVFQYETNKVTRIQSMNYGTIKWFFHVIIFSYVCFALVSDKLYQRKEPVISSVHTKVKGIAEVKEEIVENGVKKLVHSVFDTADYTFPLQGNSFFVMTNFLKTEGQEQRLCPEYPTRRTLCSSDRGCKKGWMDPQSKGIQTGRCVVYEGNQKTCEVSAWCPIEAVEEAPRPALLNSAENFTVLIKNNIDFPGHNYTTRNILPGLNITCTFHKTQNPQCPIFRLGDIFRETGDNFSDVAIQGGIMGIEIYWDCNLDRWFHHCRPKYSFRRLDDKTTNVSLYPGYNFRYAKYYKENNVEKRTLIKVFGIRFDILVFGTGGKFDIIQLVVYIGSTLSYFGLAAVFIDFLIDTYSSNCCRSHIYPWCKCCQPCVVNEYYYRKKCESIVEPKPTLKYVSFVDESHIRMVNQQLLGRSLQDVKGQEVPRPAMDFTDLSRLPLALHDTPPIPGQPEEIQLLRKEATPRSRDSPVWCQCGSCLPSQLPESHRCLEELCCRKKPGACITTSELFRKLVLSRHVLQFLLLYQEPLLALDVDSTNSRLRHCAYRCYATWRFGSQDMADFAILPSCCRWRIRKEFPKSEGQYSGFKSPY", "test": "P2X7 calcium mobilization assay, high throughput, antagonist activity (Example 4A)", "format": "cell-based", "details": "not given", "outline": "(§1)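 Antagonism was measured as calcium fluorescence (FLIPR Tetra) in cells seeded one day earlier at 100,000/well, loaded with dye for 1 h and exposed to compound for 1 h at room temperature before agonist. Peak RFU, minus the no-agonist background, was referenced to the mean of the agonist wells.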", "units": {"IC50": "µM"}}
{"smiles": "CCOC(=O)C1CCCN(Cc2cn3c(C(=O)NCC45CC6CC(CC(C6)C4)C5)cccc3n2)C1", "note": "(stereo not shown) [Compound 189, ethyl 1-({5-[(adamantan-1-ylmethyl)carbamoyl]imi-dazo[1,2-a]pyridin-2-yl}methyl)piperidine-3-carboxylate]", "IC50": "< 2"}
{"smiles": "CCOC(=O)c1cn2c(C(=O)NCC34CC5CC(CC(C5)C3)C4)cccc2n1", "note": "[Compound 2, ethyl 5-[(adamantan-1-ylmethyl)carbamoyl]imi-dazo[1,2-a]pyridine-2-carboxylate]", "IC50": "< 2"}
{"target": "T1, P2X7 receptor", "test": "P2X7 calcium mobilization assay, high throughput, antagonist activity (Example 4A)", "format": "cell-based", "details": "50% decrease in the fluorescence response of cells exposed to 80 μM 2′(3′)-O-(4-benzoyl-benzoyl)adenosine 5′-triphosphate; Example 4A; read-out: IC50", "outline": "as §1", "units": {"IC50": "µM"}}
{"smiles": "COCCCN(C(=O)Cc1cn2c(C(=O)NC[C@@H]3CC[C@@H]4C[C@H]3C4(C)C)cccc2n1)C1CCNCC1(C)C", "note": "(stereo partly drawn) [Compound 572, N-{[(1R,2R,5R)-6,6-dimethylbicyclo[3.1.1]hept-2-yl]methyl}-2-{2-[(3,3-dimethylpiperidin-4-yl)(3-methoxy-propyl)amino]-2-oxoethyl} imidazo[1,2-a] pyridine-5-carboxamide]", "IC50": "< 2"}
{"smiles": "CCN(CC)C(=O)C1CCCN(C(=O)c2cn3c(C(=O)NC[C@@H]4CC[C@H]5C[C@@H]4C5(C)C)cccc3n2)C1", "note": "(stereo partly drawn) [Compound 456, 2-{[3-(diethylcarbamoyl)piperidin-1-yl]carbonyl}-N-{[(1S,2R,5S)-6,6-dimethylbicyclo[3.1.1]hept-2-yl]methyl}imidazo[1,2-a]pyridine-5-carboxamide]", "IC50": "< 2"}
{"smiles": "CN(C(=O)Cc1cn2c(C(=O)NC[C@@H]3CC[C@@H]4C[C@H]3C4(C)C)cccc2n1)C1CCCNC1", "note": "(stereo partly drawn) [Compound 565, N-{[(1R,2R,5R)-6,6-dimethylbicyclo[3.1.1]hept-2-yl]methyl}-2-{2-[methyl(piperidin-3-yl)amino]-2-oxoethyl}imidazo[1,2-a]pyridine-5-carboxamide]", "IC50": "< 2"}
{"smiles": "O=C(NCC12CC3CC(CC(C3)C1)C2)c1cccc2nc(CC(=O)N3CCSCC3)cn12", "note": "[Compound 536, N-(adamantan-1-ylmethyl)-2-(2-oxo-2-thiomorpholin-4-ylethyl)imidazo[1,2-a]pyridine-5-carboxamide]", "IC50": "< 2"}
{"smiles": "CCCN(CC1CC1)C(=O)c1cn2c(C(=O)NC[C@@H]3CC[C@H]4C[C@@H]3C4(C)C)cccc2n1", "note": "[Compound 474, 2-N-(cyclopropylmethyl)-5-N-{[(1S,2R,5S)-6,6-dimethylbicyclo[3.1.1]hept-2-yl]methyl}-2-N-propylimidazo[1,2-a]pyridine-2,5-dicarboxamide]", "IC50": "< 2"}
{"target": "T1, P2X7 receptor", "test": "P2X7 calcium mobilization assay, high throughput, antagonist activity (Example 4A)", "format": "cell-based", "details": "50% decrease in the fluorescence response of cells exposed to 80 μM of 2′(3′)-O-(4-benzoyl-benzoyl)adenosine 5′-triphosphate; Example 4A; read-out: IC50", "outline": "as §1", "units": {"IC50": "µM"}}
{"smiles": "N[C@@H]1CCN(Cc2cn3c(C(=O)NCC(CC4CC4)c4ccccc4)cccc3n2)C1", "note": "(stereo partly shown) [Compound 782, 2-[(3-aminopyrrolidin-1-yl)methyl]-N-(3-cyclopropyl-2-phenylpropyl) imidazo [1,2-a]pyridine-5-carboxamide]", "IC50": "< 2"}
{"smiles": "COc1ccc(CC(C(=O)O)c2cn3c(C(=O)NCC45CC6CC(CC(C6)C4)C5)cccc3n2)cc1", "note": "(stereo not shown) [Compound 805, 2-{5-[(adamantan-1-ylmethyl)carbamoyl]imidazo[1,2-a]pyridin-2-yl}-3-(4-methoxyphenyl) propanoic acid]", "IC50": "< 2"}
{"smiles": "COCCN(C(=O)c1cn2c(C(=O)NCC34CC5CC(CC(C5)C3)C4)cccc2n1)C1CCNCC1(C)C", "note": "(stereo not shown) [Compound 623, 5-N-(adamantan-1-ylmethyl)-2-N-(3,3-dimethylpiperidin-4-yl)-2-N-(2-methoxyethyl)imidazo [1,2-a]pyridine-2,5-dicarboxamide]", "IC50": "< 2"}
{"smiles": "CC(C)(C)OC(=O)N[C@@H]1CCN(Cc2cn3c(C(=O)NCC(CC4CCC4)c4ccccc4)cccc3n2)C1", "note": "(stereo in doubt) [Compound 777, tert-butyl [1-({5-[(3-cyclobutyl-2-phenylpropyl)carbamoyl]imidazo[1,2-a]pyridin-2-yl}methyl)pyrrolidin-3-yl]carbamate]", "IC50": "< 2"}
{"smiles": "Cc1cnc(CNC(=O)c2cn3c(C(=O)NCC45CC6CC(CC(C6)C4)C5)cccc3n2)cn1", "note": "[Compound 656, 5-N-(adamantan-1-ylmethyl)-2-N-[(5-methylpyrazin-2-yl)methyl]imidazo[1,2-a]pyridine-2,5-dicarboxamide]", "IC50": "< 2"}
{"smiles": "CCN(CC)CCNC(=O)c1cn2c(C(=O)NCC34CC5CC(CC(C5)C3)C4)cccc2n1", "note": "[Compound 651, 5-N-(adamantan-1-ylmethyl)-2-N-[2-(diethylamino)ethyl]imidazo [1,2-a]pyridine-2,5-dicarboxamide]", "IC50": "< 2"}
{"target": "T1, P2X7 receptor", "test": "P2X7 calcium mobilization assay, high throughput, antagonist activity (Example 4A)", "format": "cell-based", "details": "50% decrease in the fluorescence response of cells exposed to 80 μM of 2′(3′)-O-(4-benzoyl-benzoyl)adenosine 5′-triphosphate; determined as in Example 4A; read-out: IC50", "outline": "as §1", "units": {"IC50": "µM"}}
{"smiles": "CC(C)CC(CNC(=O)c1cccc2nc(CC(=O)N[C@@H]3CCNC3)cn12)c1ccc(Cl)cc1", "note": "(stereo partly drawn) [Compound 960, N-[2-(4-chlorophenyl)-4-methylpentyl]-2-{2-oxo-2-[(3R)-pyrrolidin-3-ylamino]ethyl} imidazo[1,2-a] pyridine-5-carboxamide]", "IC50": "< 2"}
{"smiles": "O=C(O)Cc1nnnn1Cc1cn2c(C(=O)NCC34CC5CC(CC(C5)C3)C4)cccc2n1", "note": "[Compound 904, [1-({5-[(adamantan-1-ylmethyl)carbamoyl]imidazo[1,2-a]pyridin-2-yl}methyl)-1H-tetrazol-5-yl]acetic acid]", "IC50": "< 2"}
{"smiles": "O=C(NCC1(c2ccc(Cl)cc2)CCCCC1)c1cccc2nc(CC(Cc3ccccc3)C(=O)O)cn12", "note": "(stereo not shown) [Compound 1013, 2-benzyl-3-[5-({[1-(4-chlorophenyl)cyclohexyl]methyl}carbamoyl)imidazo[1,2-a]pyridin-2-yl] propanoic acid]", "IC50": "< 2"}
{"smiles": "O=C(NCC12CC3CC(CC(C3)C1)C2)c1cccc2nc(CC(=O)N3CCS(=O)(=O)CC3)cn12", "note": "[Compound 820, N-(adamantan-l-ylmethyl)-2-[2-(1,1-dioxidothio-morpholin-4-yl)-2-oxoethyl] imidazo[1,2-a] pyridine-5-carboxamide]", "IC50": "< 2"}
{"target": "T1, P2X7 receptor", "test": "P2X7 calcium mobilization assay, high throughput, antagonist activity (Example 4A)", "format": "cell-based", "details": "P2X7 calcium mobilization, Example 4A; 50% decrease in the fluorescence response of cells exposed to 80 μM of (2′(3′)-O-(4-benzoyl-benzoyl)adenosine 5′-triphosephate); read-out: IC50", "outline": "as §1", "units": {"IC50": "µM"}}
{"smiles": "Cc1ccc(C2(CNC(=O)c3cccc4nc(CN5CCCC5)cn34)CCCCC2)cc1", "note": "[Compound 1049, N-{[1-(4-methylphenyl)cyclohexyl]methyl}-2-(pyrrolidin-1-ylmethyl) imidazo[1,2-a]pyridine-5-carboxamide]", "IC50": "< 2"}
{"target": "T1, P2X7 receptor", "test": "P2X7 calcium mobilization assay, high throughput, antagonist activity (Example 4A)", "format": "cell-based", "details": "SH-SY5Y cells; 50% decrease in fluorescence response to 80 μM BzATP; read-out: IC50", "outline": "as §1", "units": {"IC50": "µM"}}
{"smiles": "CC(NC(=O)Cc1cn2c(C(=O)NCC34CC5CC(CC(C5)C3)C4)cccc2n1)C(N)=O", "note": "(stereo not shown) [Compound 25, N-(adamantan-1-ylmethyl)-2-{2-[(2-amino-1-methyl-2-oxoethyl)amino]-2-oxoethyl}imidazo[1,2-a]pyridine-5-carboxamide]", "IC50": "< 2"}
{"smiles": "CCNC(=O)c1cn2c(C(=O)NCC34CC5CC(CC(C5)C3)C4)cccc2n1", "note": "[Compound 72, 5-N-(adamantan-1-ylmethyl)-- ethylimidazo[1,2-a]pyridine-2,5-dicarboxamide]", "IC50": "< 2"}
{"smiles": "NC(=O)CCNC(=O)c1cn2c(C(=O)NCC34CC5CC(CC(C5)C3)C4)cccc2n1", "note": "[Compound 77, 5-N-(adamantan-1-ylmethyl)--(3-amino-3-oxopropyl)imidazo[1,2-a]pyridine-2,5-dicarboxamide]", "IC50": "< 2"}
{"smiles": "CCOC(=O)c1cn2c(C(=O)NCC34CC5CC(CC(C5)C3)C4)c(Cl)ccc2n1", "note": "[Compound 7, 5-[(adamantan-1-ylmethyl)-carbamoyl]-6-chloro-imidazo[1,2-a]pyridine-2-carboxylic acid ethyl ester]", "IC50": "< 2"}
{"target": "T1, P2X7 receptor", "test": "P2X7 calcium mobilization assay, high throughput, antagonist activity (Example 4A)", "format": "cell-based", "details": "fluorescence response of cells exposed to 80 μM 2′(3′)-O-(4-benzoyl-benzoyl)adenosine 5′-triphosphate; Example 4A; read-out: IC50", "outline": "as §1", "units": {"IC50": "µM"}}
{"smiles": "CC(C)CN(C)C(=O)c1cn2c(NC(=O)CC34CC5CC(CC(C5)C3)C4)cccc2n1", "note": "[Compound 367, 5-[(adamantan-1-ylacetyl)amino]-N-isobutyl-N-methylimidazo[1,2-a]pyridine-2-carboxamide]", "IC50": "< 2"}
{"smiles": "CCCN(C)C(=O)Cc1cn2c(C(=O)NCC(CC(C)C)c3ccccc3)cccc2n1", "note": "(stereo not shown) [Compound 246, N-(4-methyl-2-phenylpentyl)-2-{2-[methyl(propyl)amino]-2-oxoethyl)imidazo[1,2-a]pyridine-5-carboxamide]", "IC50": "< 2"}
{"smiles": "CN(C)C(=O)c1cn2c(NC(=O)CC34CC5CC(CC(C5)C3)C4)cccc2n1", "note": "[Compound 370, 5-[(adamantan-1-ylacetyl)amino]-N,N-dimethylimidazo[1,2-a]pyridine-2-carboxamide]", "IC50": "< 2"}
{"smiles": "Cc1nn(Cc2cn3c(C(=O)NCC45CC6CC(CC(C6)C4)C5)cccc3n2)cc1C(=O)O", "note": "[Compound 275, 1-({5-[(adamantan-1-ylmethyl)carbamoyl]imidazo [1,2-a]pyridin-2-yl}methyl)-3-methyl-1H-pyrazole-4-carboxylic acid]", "IC50": "< 2"}
{"smiles": "CS(=O)(=O)N1CCN(C(=O)c2cn3c(NC(=O)CC45CC6CC(CC(C6)C4)C5)cccc3n2)CC1", "note": "[Compound 399, 2-adamantan-1-yl-N-(2-{[4-(methylsulfonyl)piperazin-1-yl]carbonyl}imidazo [1,2-a]pyridin-5-yl)acetamide]", "IC50": "< 2"}
{"smiles": "O=C1CCN(C(=O)c2cn3c(NC(=O)CC45CC6CC(CC(C6)C4)C5)cccc3n2)CCN1", "note": "[Compound 380, 2-adamantan-1-yl-N-{2-[(5-oxo-1,4-diazepan-1-yl)carbonl]imidazo [1,2-a]pyridin-5-yl}acetamide]", "IC50": "< 2"}
